Results from PMC6277767, “Broad and Region-Specific Impacts of the Synthetic Cannabinoid CP 55,940 in Adolescent and Adult Female Mouse Brains” (Frontiers in Molecular Neuroscience, 2018).

Tested on: CD1 female mouse brain lipidome
Experiment: Brain-region lipid levels (HPLC/MS/MS lipidomics) 2 h after single i.p. 3 mg/kg CP 55,940 vs vehicle
Format: in vivo
Description: The Bloomington Institutional Animal Care and Use Committee of Indiana University reviewed and approved the animal procedures. Female mice from the CD1 strain were utilized to match our study examining THC’s effects on the brain lipidome ([Leishman et al., 2018]). Mice were given a single i.p. injection of either 3 mg/kg CP or 1:1:18 cremophor:ethanol:saline vehicle (please refer to the section “3 mg/kg CP Is Relevant for Synthetic Cannabinoid Abuse and Has Stronger Effects on the Female Mouse Brain Lipidome During Adolescence” for a justification of dose and use of female mice). Three different age groups were given injections: PND 35 and PND 50 adolescents, and adult mice (PND 113). At least eight mice in each age group received CP and at least eight received vehicle. Matching the THC study time course ([Leishman et al., 2018]), mice were sacrificed via rapid decapitation 2 h after injection. Brains were immediately removed and flash-frozen in liquid nitrogen, and then stored at -80°C until dissections were performed. Brains were dissected on an ice-cold dissection plate into the following regions: STR, HIPP, CER, THAL, CTX, HYP, MID, and STEM. These abbreviations for these brain areas will be used exclusively when discussing the results generated by these specific dissections. Each dissected area was immediately placed in liquid nitrogen and then stored at -80°C until used for lipid extraction.
Tissue extracts were performed as previously described ([Bradshaw et al., 2006]; [Stuart et al., 2013]; [Raboune et al., 2014]; [Leishman et al., 2016a],[b], [2017], [2018]). First, samples were shock frozen in liquid nitrogen, weighed, and transferred to a centrifuge tube. The mass of the largest sample was multiplied by 50 to determine how many milliliters of HPLC-grade methanol (Fisher, Fair Lawn, NJ, United States) to add. Then, samples were spiked with 500 pmol deuterium-labeled NAGly (d8NAGly; Cayman Chemical, Ann Arbor, MI, United States). Samples were placed on ice in darkness for 2 h then individually homogenized and centrifuged at 19,000 × g for 20 min at 20°C. Supernatants were diluted with HPLC water (purified in house) to make a solution of 75% water, 25% supernatant. Lipids were partially purified on C18 solid phase extraction columns (Agilent, Palo Alto, CA, United States). A series of four elutions with 1.5 mL of 60%, 75%, 85%, and 100% methanol were collected ([Stuart et al., 2013]; [Leishman et al., 2016a],[b], [2018]).
As previously described ([Bradshaw et al., 2006]; [Tan et al., 2006]; [Smoum et al., 2010]; [Stuart et al., 2013]; [Tortoriello et al., 2013]; [Raboune et al., 2014]; [Leishman et al., 2016a],[b], [2017], [2018]), samples were analyzed using an Applied Biosystems API 3000 triple quadrupole mass spectrometer with electrospray ionization (Foster City, CA, United States). Using an Agilent XDB-C18 reversed phase analytical column and optimized mobile phase gradients, 20 μL from each elution were chromatographed. Two Shimadzu 10ADvp pumps (Columbia, MD, United States) provided the pressure for gradient elution. Mobile phase A: 20% methanol, 80% water (v/v) and 1 mM ammonium acetate (Sigma, St. Louis, MO, United States). Mobile phase B: 100% methanol, 1 mM ammonium acetate. Every method run began with 0% mobile phase B, reached 100% mobile phase B flowing at 0.2 mL/min, and gradually returned to 0% mobile phase B.
This screening library will be referred to as the lipidome when discussing data from this study. HPLC/MS/MS data were analyzed using Analyst software (Applied Biosystems) ([Bradshaw et al., 2006]; [Tan et al., 2006]; [Stuart et al., 2013]; [Tortoriello et al., 2013]; [Raboune et al., 2014]; [Leishman et al., 2016a],[b], [2017], [2018]). Chromatograms (Supplementary Figure 3) were generated by determining the retention time of analytes from the analytical column with a [M-1] or [M+1] parent peak and a fragmentation peak corresponding to the programmed values. […]

[1] = adult brainstem, 3mg/kg CP 55,940
[2] = adult cortex, 3 mg/kg CP 55,940, p .004
[3] = adult cortex, 3 mg/kg CP 55,940, p .008
[4] = adult cortex, 3 mg/kg CP 55,940, p .028
[5] = adult cortex, 3 mg/kg CP 55,940, p .055
[6] = adult cortex, 3 mg/kg CP 55,940, p .057
[7] = adult cortex, 3 mg/kg CP 55,940, p .077
[8] = adult cortex, 3 mg/kg CP 55,940, p .086
[9] = adult cortex, 3 mg/kg CP 55,940, p .090
[10] = adult female mice, brainstem, 3mg/kg CP 55,940

CCCCCCC(C)(C)c1ccc([C@@H]2C[C@H](O)CC[C@H]2CCCO)c(O)c1 [CP 55,940]
N-docosahexaenoyl alanine level, Mean [1]: 3.28E-13 | N-docosahexaenoyl ethanolamine level, Mean [1]: 2.85E-11 | N-docosahexaenoyl glycine level, Mean [1]: 5.52E-13 | N-docosahexaenoyl phenylalanine level, Mean [1]: 3.64E-14 | N-linoleoyl GABA level, Mean [1]: 6.22E-12 | N-linoleoyl alanine level, Mean [1]: 2E-13 | N-linoleoyl ethanolamine level, Mean [1]: 8.37E-12 | N-linoleoyl glycine level, Mean [1]: 1.41E-13 | N-linoleoyl methionine level, Mean [1]: BDL | N-oleoyl GABA level, Mean [1]: 1.65E-11 | N-oleoyl alanine level, Mean [1]: 3.26E-12 | N-oleoyl dopamine level, Mean [1]: BDL | N-oleoyl ethanolamine level, Mean [1]: 2.44E-10 | N-oleoyl ethanolamine, Direction (relative to Veh) [1]: ↓ | N-oleoyl ethanolamine, Magnitude (x Veh level) [1]: 0.76 x Veh level | N-oleoyl glycine level, Mean [1]: 2.1E-12 | N-oleoyl leucine level, Mean [1]: 2E-12 | N-oleoyl methionine level, Mean [1]: 4.11E-13 | N-oleoyl phenylalanine level, Mean [1]: 4.28E-13 | N-palmitoyl GABA level, Mean [1]: 1.95E-11 | N-palmitoyl alanine level, Mean [1]: 3.16E-12 | N-palmitoyl ethanolamine level, Mean [1]: 8.74E-11 | N-palmitoyl glycine level, Mean [1]: 2.79E-12 | N-palmitoyl leucine level, Mean [1]: 3.05E-12 | N-palmitoyl leucine, Direction (relative to Veh) [1]: ↑ | N-palmitoyl leucine, Magnitude (x Veh level) [1]: 1.30 x Veh level | N-palmitoyl methionine level, Mean [1]: 5.07E-12 | N-palmitoyl phenylalanine level, Mean [1]: 2.38E-13 | N-palmitoyl valine Direction (relative to Veh) [1]: ↑ | N-palmitoyl valine Magnitude (x Veh level) [1]: 1.43 x Veh level | N-stearoyl GABA level, Mean [1]: 1.37E-11 | N-stearoyl alanine level, Mean [1]: 5.4E-12 | N-stearoyl ethanolamine level, Mean [1]: 3.01E-11 | N-stearoyl glycine level, Mean [1]: 4.95E-12 | N-stearoyl leucine level, Mean [1]: 1.96E-12 | N-stearoyl methionine level, Mean [1]: 4.69E-13 | N-stearoyl phenylalanine level, Mean [1]: 1.53E-13 | Oleic acid, Direction (relative to Veh) [1]: ↓ | Oleic acid, Magnitude (x Veh level) [1]: 0.80 x Veh level | PGE2 Direction (relative to Veh) [1]: ↓ | PGE2 Magnitude (x Veh level) [1]: 0.87 x Veh level | 2-arachidonoyl glycerol level, Mean (adult cortex, 3mg/kg CP 55,940): 3.28E-09 | 2-linoleoyl glycerol level, Mean (adult cortex, 3mg/kg CP 55,940): 1.48E-10 | 2-oleoyl glycerol level, Mean (adult cortex, 3mg/kg CP 55,940): 1.56E-09 | 2-palmitoyl glycerol level, Mean (adult cortex, 3mg/kg CP 55,940): 8.13E-11 | 6-ketoPGF1α level, Mean (adult cortex, 3mg/kg CP 55,940): 1.5E-11 | 11-OH-THC level, Mean (adult cortex, 3mg/kg CP 55,940): BDL | 11-nor-9-carboxyTHC level, Mean (adult cortex, 3mg/kg CP 55,940): BDL | Arachidonic acid level, Mean (adult cortex, 3mg/kg CP 55,940): 9.03E-10 | Cannabidiol level, Mean (adult cortex, 3mg/kg CP 55,940): BDL | Linoleic acid level, Mean (adult cortex, 3mg/kg CP 55,940): 5.34E-10 | N- stearoyl valine level, Mean (adult cortex, 3mg/kg CP 55,940): 2.51E-14 | N-arachidonoyl proline level, Mean (adult cortex, 3mg/kg CP 55,940): BDL | N-arachidonoyl taurine level, Mean (adult cortex, 3mg/kg CP 55,940): 8.95E-11 | N-arachidonoyl tryptophan level, Mean (adult cortex, 3mg/kg CP 55,940): BDL | N-arachidonoyl tyrosine level, Mean (adult cortex, 3mg/kg CP 55,940): 6.06E-13 | N-docosahexaenoyl proline level, Mean (adult cortex, 3mg/kg CP 55,940): BDL | N-docosahexaenoyl tryptophan level, Mean (adult cortex, 3mg/kg CP 55,940): BDL | N-docosahexaenoyl tyrosine level, Mean (adult cortex, 3mg/kg CP 55,940): 3.81E-13 | N-linoleoyl proline level, Mean (adult cortex, 3mg/kg CP 55,940): BDL | N-linoleoyl serine level, Mean (adult cortex, 3mg/kg CP 55,940): 1.53E-11 | N-linoleoyl tryptophan level, Mean (adult cortex, 3mg/kg CP 55,940): BDL | N-linoleoyl tyrosine level, Mean (adult cortex, 3mg/kg CP 55,940): BDL | N-nervonoyl valine level, Mean (adult cortex, 3mg/kg CP 55,940): BDL | N-oleoyl proline level, Mean (adult cortex, 3mg/kg CP 55,940): BDL | N-oleoyl serine level, Mean (adult cortex, 3mg/kg CP 55,940): 8.25E-11 | N-oleoyl tryptophan level, Mean (adult cortex, 3mg/kg CP 55,940): BDL | N-oleoyl tyrosine level, Mean (adult cortex, 3mg/kg CP 55,940): 3.46E-13 | N-oleoyl valine level, Mean (adult cortex, 3mg/kg CP 55,940): 1.3E-14 | N-palmitoyl proline level, Mean (adult cortex, 3mg/kg CP 55,940): BDL | N-palmitoyl serine level, Mean (adult cortex, 3mg/kg CP 55,940): 6.45E-12 | N-palmitoyl tryptophan level, Mean (adult cortex, 3mg/kg CP 55,940): BDL | N-palmitoyl tyrosine level, Mean (adult cortex, 3mg/kg CP 55,940): 7.95E-13 | N-palmitoyl valine level, Mean (adult cortex, 3mg/kg CP 55,940): 1.13E-13 | N-stearoyl proline level, Mean (adult cortex, 3mg/kg CP 55,940): BDL | N-stearoyl serine level, Mean (adult cortex, 3mg/kg CP 55,940): 9.84E-12 | N-stearoyl tryptophan level, Mean (adult cortex, 3mg/kg CP 55,940): BDL | N-stearoyl tyrosine level, Mean (adult cortex, 3mg/kg CP 55,940): 1.21E-13 | Oleic acid level, Mean (adult cortex, 3mg/kg CP 55,940): 4.6E-10 | PGE2 level, Mean (adult cortex, 3mg/kg CP 55,940): 3.08E-10 | PhosphoLEA level, Mean (adult cortex, 3mg/kg CP 55,940): 1.8E-12 | THC level, Mean (adult cortex, 3mg/kg CP 55,940): BDL | 6-ketoPGF1α Direction (relative to Veh) [2]: ↓ | 6-ketoPGF1α Magnitude (x Veh level) [2]: 0.68 | N-palmitoyl valine Direction (relative to Veh) [3]: ↑ | N-palmitoyl valine Magnitude (x Veh level) [3]: 1.49 | PGF2α Direction (relative to Veh) [4]: ↓ | PGF2α Magnitude (x Veh level) [4]: 0.89 | N-linoleoyl GABA Direction (relative to Veh) [5]: ↓ | N-linoleoyl GABA Magnitude (x Veh level) [5]: 0.86 | N-stearoyl phenylalanine, Direction (relative to Veh) [6]: ↓ | N-stearoyl phenylalanine, Magnitude (x Veh level) [6]: 0.66 | Arachidonic acid, Direction (relative to Veh) [7]: ↓ | Arachidonic acid, Magnitude (x Veh level) [7]: 0.86 | N-arachidonoyl taurine Direction (relative to Veh) [8]: ↓ | N-arachidonoyl taurine Magnitude (x Veh level) [8]: 0.93 | 2-linoleoyl glycerol Direction (relative to Veh) [9]: ↓ | 2-linoleoyl glycerol Magnitude (x Veh level) [9]: 0.76 | 2-arachidonoyl glycerol level, Mean [10]: 4.32E-09 | 2-linoleoyl glycerol level, Mean [10]: 2.54E-10 | 2-oleoyl glycerol level, Mean [10]: 3.17E-09 | 2-palmitoyl glycerol level, Mean [10]: 3.83E-11
